Assay: Human HepG2 cell viability assay in 384 well format
Assay type: toxicity, cell-based
Set-up: dose 125 nL, time 70.5 hour; concentration not given beside the values
Conditions: HepG2 cells, read-out: Inhibition
In the case of `COc1ccc(CN2CCC[C@@H]3CN(C(=O)c4ccco4)C[C@@H]32)cc1`, the cytotoxicity at 70.5 h is reported as -10.9%.
`Clc1cccc(C2CCN(c3ncnc4c3CCNC4)C2)c1` (stereo not given) gave a cytotoxicity at 70.5 h of -1.22%.
For `O=C([C@H]1C[C@H]2OCC[C@H]2N(Cc2cccnc2)C1)N1CCCO1`, the cytotoxicity at 70.5 h was 0.465%.
`CCN(CC)C(=O)c1ccc(Cl)c(NC(=O)c2csnn2)c1` showed a cytotoxicity at 70.5 h of -10.1%.
For `Cc1nc(COCc2cnc3n2CCN(C(=O)C2CC2)C3C)cs1` (stereo not given), the cytotoxicity at 70.5 h was 11.4%.
With `O=C(CCCn1cncn1)NC1CCc2nccn2C1` (stereo not given) the cytotoxicity at 70.5 h was -0.0953%.
In the case of `CC(=O)N1N=C(Cc2ccccc2)OC1C(=O)NCC(=O)OC(C)(C)C` (stereo not given), the cytotoxicity at 70.5 h is reported as -4.37%.
`Cc1c(Br)cc2c(c1C)OCC(N(C)C)C2=O` (stereo not given) gave a cytotoxicity at 70.5 h of 19.9%.
Work on `Cc1oc(CNC(=O)Cc2ccc3ccccc3c2)cc1C(=O)O` yielded a cytotoxicity at 70.5 h of 5.89%.
Work on `O=C(CC1CCCC1)N1C[C@H](OCc2ccncc2)[C@H]2OCCC[C@H]21` yielded a cytotoxicity at 70.5 h of -27.1%.
`COCC(=O)N1CCN(C)C(=O)C(Cc2ccc(-c3cccs3)cc2)C1` (stereo not given) showed a cytotoxicity at 70.5 h of -1.25%.
`Cc1ccccc1NC1CCN(C(=O)CCc2ccco2)CC1` gave a cytotoxicity at 70.5 h of 1.41%.
For `Cc1ncsc1C(=O)NCCSCc1cccs1`, the cytotoxicity at 70.5 h was -1.32%.
Compound `O=C(c1cnccn1)N1CCCC(Cc2ccccn2)C1` (stereo not given) has a cytotoxicity at 70.5 h of 4.02%.
`COCCSCC(=O)NC1(c2cccc(Br)c2)CC1` gave a cytotoxicity at 70.5 h of -2.67%.
Compound `CCc1nc(CN(C)C2CCN(CCc3cccs3)C2)no1` (stereo not given) has a cytotoxicity at 70.5 h of -6.05%.
Work on `Cc1noc(C2CCN(c3oc(C)nc3C#N)CC2)n1` yielded a cytotoxicity at 70.5 h of 2.04%.
For `Cc1c(C(C)NC(=O)Nc2ccc(F)cc2F)cnn1C` (stereo not given), the cytotoxicity at 70.5 h was -3.54%.
For `COc1ccc(F)cc1C(C(=O)O)N1CCSCC1` (stereo not given), the cytotoxicity at 70.5 h was -7.69%.
`COc1ccccc1OC1CN(C(=O)c2c(C)nc3ccc(C)cn23)C1` showed a cytotoxicity at 70.5 h of -1.56%.
`C=C(C)CNC(C)c1ccc(S(C)(=O)=O)c(F)c1` (stereo not given) showed a cytotoxicity at 70.5 h of -9.09%.
`O=c1cc(N2CCNCC2)cnn1CCc1ccc(F)cc1` showed a cytotoxicity at 70.5 h of -4.81%.
`COC(=O)C1=C(C)N=C2SCC(=O)N2C1c1cn(C)nc1C` (stereo not given) showed a cytotoxicity at 70.5 h of -9.65%.
`CC(C)N1CCC2(CCN(C(=O)c3cccnc3)CC2)C1` showed a cytotoxicity at 70.5 h of -16.3%.
For `COC(=O)C(NC(=O)COC1CCCC1)c1cc(F)ccc1F` (stereo not given), the cytotoxicity at 70.5 h was -11.6%.
In the case of `CC(C)OC(=O)N1C[C@H]2CC[C@@H]1CN(C(=O)c1ccccc1)C2`, the cytotoxicity at 70.5 h is reported as -2.95%.
In the case of `CC(c1cc(F)ccc1F)N(C)Cc1nc2c(cnn2C)c(=O)[nH]1` (stereo not given), the cytotoxicity at 70.5 h is reported as 10.4%.
With `Cc1cccc(C(=O)N2CCCN(CCc3scnc3C)CC2)c1` the cytotoxicity at 70.5 h was -10.5%.
`CCCNC(=O)c1cnc(N(C)C)nc1COC` gave a cytotoxicity at 70.5 h of -5.33%.
Work on `CC(=O)c1cccc(NC(=O)Cn2nc(-c3cccs3)oc2=O)c1` yielded a cytotoxicity at 70.5 h of 10.5%.
With `Cc1cc(C)c(Cn2cncn2)cc1CN1CC[C@H]2CC[C@@H](C1)N2` the cytotoxicity at 70.5 h was 2.8%.
For `COc1ccc(CN2CCSCC2)c(OC)c1`, the cytotoxicity at 70.5 h was -6.31%.
`CCOC(=O)c1nc(COc2c(C)occc2=O)no1` showed a cytotoxicity at 70.5 h of -20.5%.
`Cc1nn(C)cc1C(=O)N1CCCC(c2nccn2Cc2cscn2)C1` (stereo not given) gave a cytotoxicity at 70.5 h of -7.69%.
Work on `CCOc1cc(C(=O)n2cc(C)cn2)cc(OCC)c1OCC` yielded a cytotoxicity at 70.5 h of 1.34%.
Compound `Cn1ncc2c(=O)[nH]c(N3CCCC3c3cccs3)nc21` (stereo not given) has a cytotoxicity at 70.5 h of 17.2%.
`CN(C)c1cccc(C(=O)Nc2cnn(Cc3ccccn3)c2)c1` showed a cytotoxicity at 70.5 h of -9.4%.
In the case of `COCCCN(C)C1CCCN(Cc2noc(C)n2)C1` (stereo not given), the cytotoxicity at 70.5 h is reported as 6.68%.
`C=C(C)COCCNC(=O)N1CCc2c(cccc2OC)C1` gave a cytotoxicity at 70.5 h of 7.17%.
Work on `CC(CS(C)(=O)=O)N(C(=O)Nc1cc(F)ccc1Cl)C1CC1` (stereo not given) yielded a cytotoxicity at 70.5 h of 2.35%.
`Cc1ccc(-c2noc(CN3CCCC(Cn4cncn4)C3)n2)cc1` (stereo not given) showed a cytotoxicity at 70.5 h of -1.78%.
`CCOc1ccccc1CNS(=O)(=O)c1ccc2c(c1)CCCC(=O)N2` showed a cytotoxicity at 70.5 h of -9.4%.
Compound `Cc1nc(C)n(CC2CN(Cc3noc(C4CC4)n3)CCO2)n1` (stereo not given) has a cytotoxicity at 70.5 h of -6.68%.
Compound `O=C1CC2(CCSC2)C(=O)N1Cc1coc(-c2cccc(F)c2)n1` (stereo not given) has a cytotoxicity at 70.5 h of -2.41%.
`c1cncc(OCC2CN(Cc3ccsc3)Cc3nccn3C2)c1` (stereo not given) showed a cytotoxicity at 70.5 h of 6.26%.

— ChEMBL document CHEMBL3507680, “University of Dundee, Gates Library screen for HepG2 cell viability”
